Where only a bound is given, the exact number is not on record here.

Here are results for 25 compounds from patent US12441703B2, “Carboxamides as modulators of sodium channels” (VERTEX PHARMACEUTICALS INCORPORATED, priority 2019, dated 2025).

human NaV 1.8, sequence (Q9Y5Y9 whole entry, looked up, the tested form may be a part): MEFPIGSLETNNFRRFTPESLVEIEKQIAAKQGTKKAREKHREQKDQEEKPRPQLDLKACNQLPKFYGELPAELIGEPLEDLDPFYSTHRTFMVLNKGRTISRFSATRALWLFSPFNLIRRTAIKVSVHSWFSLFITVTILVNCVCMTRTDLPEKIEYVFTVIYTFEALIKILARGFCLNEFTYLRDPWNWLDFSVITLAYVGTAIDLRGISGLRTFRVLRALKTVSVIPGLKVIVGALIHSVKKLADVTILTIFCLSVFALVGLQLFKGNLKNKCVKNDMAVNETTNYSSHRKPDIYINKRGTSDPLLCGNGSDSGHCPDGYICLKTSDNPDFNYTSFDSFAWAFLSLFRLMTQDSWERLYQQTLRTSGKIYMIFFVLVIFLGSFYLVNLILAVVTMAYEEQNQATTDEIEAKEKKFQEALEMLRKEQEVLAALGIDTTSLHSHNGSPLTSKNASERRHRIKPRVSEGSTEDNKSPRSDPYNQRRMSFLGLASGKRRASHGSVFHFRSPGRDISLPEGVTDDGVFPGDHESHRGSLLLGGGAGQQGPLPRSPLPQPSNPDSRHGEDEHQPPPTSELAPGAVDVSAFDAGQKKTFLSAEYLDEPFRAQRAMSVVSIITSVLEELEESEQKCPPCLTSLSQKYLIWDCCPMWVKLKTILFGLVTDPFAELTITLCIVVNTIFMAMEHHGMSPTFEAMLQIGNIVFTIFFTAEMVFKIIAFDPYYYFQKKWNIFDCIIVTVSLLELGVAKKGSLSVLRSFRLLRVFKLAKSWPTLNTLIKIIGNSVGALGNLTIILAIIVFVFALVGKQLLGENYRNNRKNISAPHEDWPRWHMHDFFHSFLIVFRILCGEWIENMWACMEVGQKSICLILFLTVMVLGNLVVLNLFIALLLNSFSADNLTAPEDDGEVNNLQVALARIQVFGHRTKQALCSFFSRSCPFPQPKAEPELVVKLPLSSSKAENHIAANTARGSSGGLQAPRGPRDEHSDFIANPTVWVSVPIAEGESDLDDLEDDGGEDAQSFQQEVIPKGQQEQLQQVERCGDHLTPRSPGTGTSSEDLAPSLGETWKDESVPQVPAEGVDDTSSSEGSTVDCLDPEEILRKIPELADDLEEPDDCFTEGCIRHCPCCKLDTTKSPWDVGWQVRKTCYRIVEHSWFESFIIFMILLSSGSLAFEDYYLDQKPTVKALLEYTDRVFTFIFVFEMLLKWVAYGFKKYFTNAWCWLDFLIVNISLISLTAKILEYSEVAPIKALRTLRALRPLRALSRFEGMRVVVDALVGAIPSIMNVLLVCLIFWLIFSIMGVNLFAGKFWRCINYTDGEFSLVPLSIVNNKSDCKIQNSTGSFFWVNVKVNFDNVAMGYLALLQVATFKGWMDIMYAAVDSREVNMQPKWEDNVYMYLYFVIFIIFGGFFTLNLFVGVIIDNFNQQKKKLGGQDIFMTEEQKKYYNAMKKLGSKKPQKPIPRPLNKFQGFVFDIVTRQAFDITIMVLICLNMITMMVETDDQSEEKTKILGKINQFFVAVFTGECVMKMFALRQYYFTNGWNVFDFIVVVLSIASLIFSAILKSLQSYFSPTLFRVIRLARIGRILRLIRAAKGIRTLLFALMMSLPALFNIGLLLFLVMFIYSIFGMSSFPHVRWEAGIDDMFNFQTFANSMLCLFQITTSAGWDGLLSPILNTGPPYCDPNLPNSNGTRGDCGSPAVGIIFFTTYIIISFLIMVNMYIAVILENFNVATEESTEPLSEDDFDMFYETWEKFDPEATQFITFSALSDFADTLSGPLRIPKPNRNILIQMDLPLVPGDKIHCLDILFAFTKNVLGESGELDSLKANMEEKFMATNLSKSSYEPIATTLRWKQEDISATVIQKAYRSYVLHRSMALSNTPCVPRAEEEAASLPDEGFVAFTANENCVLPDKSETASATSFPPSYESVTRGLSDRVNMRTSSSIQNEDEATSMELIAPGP

In the experiment the target is human NaV 1.8 (Homo sapiens, UniProt Q9Y5Y9). In words: E-VIPR assay for detecting and measuring NaV inhibition properties. The experiment is classed as cell-based. The note with it: E-VIPR assay conducted in the presence of human serum; HEK cells expressing truncated human NaV 1.8; read-out: IC50. The text has this:
Sodium ion channels are voltage-dependent proteins that can be activated by inducing membrane voltage changes by applying electric fields. The electrical stimulation instrument and methods of use, referred to as E-VIPR, are described in International Publication No. WO 2002/008748 A3 and C.-J. Huang et al. Characterization of voltage-gated sodium channel blockers by electrical stimulation and fluorescence detection of membrane potential, 24 Nature Biotech. 439-46 (2006), both of which are incorporated by reference in their entirety. The instrument comprises a microtiter plate handler, an optical system for exciting the coumarin dye while simultaneously recording the coumarin and oxonol emissions, a waveform generator, a current- or voltage-controlled amplifier, and parallel electrode pairs that are inserted into assay plate wells. Under integrated computer control, this instrument passes user-programmed electrical stimulus protocols to cells within the wells of the microtiter plate.
16-20 hours prior to running the assay on E-VIPR, HEK cells expressing a truncated form of human NaV 1.8 with full channel activity were seeded into microtiter 384-well plates, pre-coated with matrigel, at a density of 25,000 cells per well. 2.5-5% KIR2.1 Bacmam virus was added to the final cell suspension before seeding into cell plates. HEK cells were grown in Dulbecco's Modified Eagle's Medium (DMEM) supplemented with 10% FBS (Fetal Bovine Serum, qualified; Sigma #F4135), 1% NEAA (Non-Essential Amino Acids, Gibco #11140), 1% HEPES (Gibco #15630), 1% Pen-Strep (Penicillin-Streptomycin; Gibco #15140) and 5 μg/ml Blasticidin (Gibco #R210-01). Cells were expanded in vented cap cell culture flasks, with 90-95% humidity and 5% CO2.
Compound Loading Buffer (2× concentration): Na/TMA Cl Bath1 Buffer containing HS (omitted in experiments run in the absence of human serum (HS)) 50%, VABSC-1 1 mM, BSA 0.2 mg/ml (in Bath-1), KCl 9 mM, DMSO 0.75%.
• 1) To reach the final concentration in each well, 400 nL of each compound was pre-spotted (in neat DMSO) into polypropylene compound plates at 250× desired final concentration from an intermediate stock concentration of 0.075 mM, in an 11 point dose response, 3-fold dilution, resulting in a top dose of 300 nM final concentration in the cell plate. Vehicle control (neat DMSO), and positive control (an established NaV1.8 inhibitor, 25 μM final in assay in DMSO) were added manually to the outermost columns of each plate respectively. The compound plate was backfilled with 45 μL per well of Compound Loading Buffer resulting in a 250 fold dilution of compound following a 1:1 transfer of compound into the cell plate (see Step 6). Final DMSO concentration for all wells in the assay was 0.625% (0.75% DMSO was supplemented to the Compound Loading Buffer for a final DMSO concentration of 0.625%). This assay dilution protocol was adjusted to enable a higher dose range to be tested in the presence of HS or if the final assay volume was altered. • 2) Hexyl Dye Solution was prepared. • 3) Cell plates were prepared. On the day of the assay, the media was aspirated, and the cells were washed three times with 80 μL of Bath-1 buffer, maintaining 25 μL residual volume in each well. • 4) 25 μL per well of Hexyl Dye Solution was dispensed into the cell plates. The cells were incubated for 20 minutes at room temperature or ambient conditions in darkness. • 5) 45 μL per well of Compound Loading Buffer was dispensed into compound plates. • 6) The cell plates were washed three times with 80 μL per well of Bath-1 Buffer, leaving 25 µL of residual volume. Then 25 μL per well from compound plate was transferred to each cell plate. The mixture was incubated for 30 minutes at room temperature/ambient conditions. • 7) The cell plate containing compound was read on E-VIPR using the current-controlled amplifier to deliver stimulation wave pulses using a symmetrical biphasic waveform. […]
Regarding `CCOc1ccc(Oc2ccc(C(F)(F)F)c(F)c2C(=O)Nc2ccnc(C(N)=O)c2)cc1Cl` [Compound 38, 4-[[6-(3-chloro-4-ethoxy-phenoxy)-2-fluoro-3-(trifluoromethyl)benzoyl]amino]pyridine-2-carboxamide], the IC50 (in general, the midpoint of a concentration-inhibition curve) stood at 43 nM. As for `NC(=O)c1cc(NC(=O)c2c(Oc3ccc(C(F)(F)F)nc3)ccc(C(F)(F)F)c2F)ccn1` [Compound 39, 4-[[2-fluoro-3-(trifluoromethyl)-6-[[6-(trifluoromethyl)-3-pyridyl]oxy]benzoyl]amino]pyridine-2-carboxamide], the IC50 is above 3000 nM. With `NC(=O)c1cc(NC(=O)c2c(Oc3cccc(C4CCCCC4)c3)ccc(C(F)(F)F)c2F)ccn1` [Compound 40, 4-[[6-(3-cyclohexylphenoxy)-2-fluoro-3-(trifluoromethyl)benzoyl]amino]pyridine-2-carboxamide], the concentration for half-maximal inhibition (IC50) was above 3000 nM.

`NC(=O)c1cc(NC(=O)c2c(Oc3ccc(OC(F)(F)F)cc3C3CC3)ccc(C(F)(F)F)c2F)ccn1` [Compound 41, 4-[[6-[2-cyclopropyl-4-(trifluoromethoxy)phenoxy]-2-fluoro-3-(trifluoromethyl)benzoyl]amino]pyridine-2-carboxamide]: the IC50 is 10 nM. With `Cc1c(Oc2ccc(C(F)(F)F)c(F)c2C(=O)Nc2ccnc(C(N)=O)c2)ccc(F)c1F` [Compound 42, 4-[[6-(3,4-difluoro-2-methyl-phenoxy)-2-fluoro-3-(trifluoromethyl)benzoyl]amino]pyridine-2-carboxamide], the IC50 was 8 nM. In the case of `COc1cc(Cl)ccc1Oc1ccc(C(F)(F)F)c(F)c1C(=O)Nc1ccnc(C(N)=O)c1` [Compound 43, 4-[[6-(4-chloro-2-methoxy-phenoxy)-2-fluoro-3-(trifluoromethyl)benzoyl]amino]pyridine-2-carboxamide], the IC50 stood at 13 nM. On to `COc1cc(C(F)(F)C(F)(F)F)ccc1Oc1ccc(C(F)(F)F)c(F)c1C(=O)Nc1ccnc(C(N)=O)c1` [Compound 44, 4-[[2-fluoro-6-[2-methoxy-4-(1,1,2,2,2-pentafluoroethyl)phenoxy]-3-(trifluoromethyl)benzoyl]amino]pyridine-2-carboxamide], for which the IC50 is 22 nM. Consider `COc1cc(C)cc(OC)c1Oc1ccc(C(F)(F)F)c(F)c1C(=O)Nc1ccnc(C(N)=O)c1` [Compound 45, 4-[[6-(2,6-dimethoxy-4-methyl-phenoxy)-2-fluoro-3-(trifluoromethyl)benzoyl]amino]pyridine-2-carboxamide], for which the IC50 was above 3000 nM. Turning to `NC(=O)c1cc(NC(=O)c2c(Oc3c(F)cc(F)cc3F)ccc(C(F)(F)F)c2F)ccn1` [Compound 46, 4-[[2-fluoro-3-(trifluoromethyl)-6-(2,4,6-trifluorophenoxy)benzoyl]amino]pyridine-2-carboxamide], the concentration for half-maximal inhibition (IC50) was above 3000 nM.

As to `Cc1cc(Cl)cc(Cl)c1Oc1ccc(C(F)(F)F)c(F)c1C(=O)Nc1ccnc(C(N)=O)c1` [Compound 47, 4-[[6-(2,4-dichloro-6-methyl-phenoxy)-2-fluoro-3-(trifluoromethyl)benzoyl]amino]pyridine-2-carboxamide], the IC50 amounted to 1400 nM. Regarding `Cc1c(F)ccc(Oc2ccc(C(F)(F)F)c(F)c2C(=O)Nc2ccnc(C(N)=O)c2)c1C` [Compound 48, 4-[[2-fluoro-6-(4-fluoro-2,3-dimethyl-phenoxy)-3-(trifluoromethyl)benzoyl]amino]pyridine-2-carboxamide], the IC50 was found to be 50 nM.

On to `NC(=O)c1cc(NC(=O)c2c(Oc3ccc(F)c(F)c3F)ccc(C(F)(F)F)c2F)ccn1` [Compound 49, 4-[[2-fluoro-3-(trifluoromethyl)-6-(2,3,4-trifluorophenoxy)benzoyl]amino]pyridine-2-carboxamide], for which the IC50 was 42 nM. To `Cc1cc(Cl)ccc1Oc1ccc(C(F)(F)F)c(F)c1C(=O)Nc1ccnc(C(N)=O)c1` [Compound 50, 4-[[6-(4-chloro-2-methyl-phenoxy)-2-fluoro-3-(trifluoromethyl)benzoyl]amino]pyridine-2-carboxamide] belongs 33 nM; to `NC(=O)c1cc(NC(=O)c2c(Oc3ccc(Cl)cc3F)ccc(C(F)(F)F)c2F)ccn1` [Compound 51, 4-[[6-(4-chloro-2-fluoro-phenoxy)-2-fluoro-3-(trifluoromethyl)benzoyl]amino]pyridine-2-carboxamide], 200 nM.

With `COc1cc(F)ccc1Oc1ccc(C(F)(F)F)c(OC)c1C(=O)Nc1ccnc(C(N)=O)c1` [Compound 52, 4-[[6-(4-fluoro-2-methoxy-phenoxy)-2-methoxy-3-(trifluoromethyl)benzoyl]amino]pyridine-2-carboxamide], the half-maximal inhibitory concentration (IC50) is 170 nM. For `COc1c(C(F)(F)F)ccc(Oc2ccc(OC(C)C)cc2)c1C(=O)Nc1ccnc(C(N)=O)c1` [Compound 53, 4-[[6-(4-isopropoxyphenoxy)-2-methoxy-3-(trifluoromethyl)benzoyl]amino]pyridine-2-carboxamide], the IC50 is 110 nM.

For `COc1ccc(Cl)cc1Oc1ccc(C(F)(F)F)c(OC)c1C(=O)Nc1ccnc(C(N)=O)c1` [Compound 54, 4-[[6-(5-chloro-2-methoxy-phenoxy)-2-methoxy-3-(trifluoromethyl)benzoyl]amino]pyridine-2-carboxamide], the IC50 is 510 nM. `COc1c(C(F)(F)F)ccc(Oc2ccc(F)c(F)c2)c1C(=O)Nc1ccnc(C(N)=O)c1` [Compound 55, 4-[[6-(3,4-difluorophenoxy)-2-methoxy-3-(trifluoromethyl)benzoyl]amino]pyridine-2-carboxamide]: the IC50 came to 420 nM. As for `COc1c(C(F)(F)F)ccc(Oc2ccc(OC(C)C)c(Cl)c2)c1C(=O)Nc1ccnc(C(N)=O)c1` [Compound 56, 4-[[6-(3-chloro-4-isopropoxy-phenoxy)-2-methoxy-3-(trifluoromethyl)benzoyl]amino]pyridine-2-carboxamide], the IC50 was found to be 48 nM. Take `COc1c(C(F)(F)F)ccc(Oc2ccc(F)c(Cl)c2)c1C(=O)Nc1ccnc(C(N)=O)c1` [Compound 57, 4-[[6-(3-chloro-4-fluoro-phenoxy)-2-methoxy-3-(trifluoromethyl)benzoyl]amino]pyridine-2-carboxamide]: the IC50 came out at 350 nM. Take `COc1c(Oc2ccc(C(F)(F)F)c(OC)c2C(=O)Nc2ccnc(C(N)=O)c2)ccc(F)c1F` [Compound 58, 4-[[6-(3,4-difluoro-2-methoxy-phenoxy)-2-methoxy-3-(trifluoromethyl)benzoyl]amino]pyridine-2-carboxamide]: the half-inhibitory concentration (IC50) came to 150 nM.

For `COc1c(C(F)(F)F)ccc(Oc2ccc(F)cc2Cl)c1C(=O)Nc1ccnc(C(N)=O)c1` [Compound 59, 4-[[6-(2-chloro-4-fluoro-phenoxy)-2-methoxy-3-(trifluoromethyl)benzoyl]amino]pyridine-2-carboxamide], the IC50 was 100 nM. As to `COc1c(C(F)(F)F)ccc(Oc2ccc(OC3CCCCC3)cc2)c1C(=O)Nc1ccnc(C(N)=O)c1` [Compound 60, 4-[[6-[4-(cyclohexoxy)phenoxy]-2-methoxy-3-(trifluoromethyl)benzoyl]amino]pyridine-2-carboxamide], the concentration for half-maximal inhibition (IC50) came out at 520 nM. Regarding `COc1c(C(F)(F)F)ccc(Oc2ccc(F)c(C)c2)c1C(=O)Nc1ccnc(C(N)=O)c1` [Compound 61, 4-[[6-(4-fluoro-3-methyl-phenoxy)-2-methoxy-3-(trifluoromethyl)benzoyl]amino]pyridine-2-carboxamide], the IC50 came out at 490 nM. To `COc1c(C(F)(F)F)ccc(Oc2ccc(F)cc2F)c1C(=O)Nc1ccnc(C(N)=O)c1` [Compound 62, 4-[[6-(2,4-difluorophenoxy)-2-methoxy-3-(trifluoromethyl)benzoyl]amino]pyridine-2-carboxamide] belongs 440 nM.
